Experimental data taken from patent US7163940B2, “Pyrazolopyridinyl pyrimidine therapeutic compounds” (SmithKline Beecham Corporation, priority 2000, dated 2007).
Structures can show the parent of a compound that is named as a salt.

tested on: HSV-1; assay: HSV-1 replication in infected Vero 76 cells, viral DNA hybridization capture assay; type: cell-based; settings: HSV-1, Vero 76 cells, MOI=0.001, 40–48 hours incubation
Method: Vero 76 cells were maintained in MEM with Earle's salts, L-glutamine, 8% FBS (Hyclone, A-1111-L) and 100 units/mL Penicillin-100 μg/mL Streptomycin. For assay conditions, FBS was reduced to 2%. Cells are seeded into 96-well tissue culture plates at a density of 5×10^4 cells/well after being incubated for 45 min at 37° C. in the presence of HSV-1 or HSV-2 (MOI=0.001). Test compounds are added to the wells and the plates are incubated at 37° C. for 40–48 hours. Cell lysates are prepared as follows: media was removed and replaced with 150 μL/well 0.2 N NaOH with 1% Igepal CA 630 or NP-40. Plates were incubated up to 14 days at room temperature in a humidified chamber to prevent evaporation. • (b) Preparation of Detection DNA.
For the detection probe, a gel-purified, digoxigenin-labeled, […] PCR fragment of the HSV UL-15 sequence was utilized. PCR conditions included 0.5 μM primers, 180 μM dTP, 20 μM dUTP-digoxigenin (Boehringer Mannheim 1558706), 200 μM each of dATP, dCTP, and dGTP, 1×PCR Buffer II (Perkin Elmer), 2.5 mM MgCl2, 0.025 units/μL of AmpliTaq Gold polymerase (Perkin Elmer), and 5 ng of gel-purified HSV DNA per 100 μL. Extension conditions were 10 min at 95° C., followed by 30 cycles of 95° C. for 1 min, 55° C. for 30 sec, and 72° C. for 2 min. The amplification was completed with a 10-min incubation at 72° C. Primers were selected to amplify a 728 bp probe spanning a section of the HSV1 UL15 open reading frame (nucleotides 249–977). Single-stranded transcripts were purified with Promega M13 Wizard kits. The final product was mixed 1:1 with a mixture of 6 M GuSCN, 100 mM EDTA and 200 μg/mL herring sperm DNA and stored at 4° C. • (c) Preparation of Capture Plates.
The capture DNA plasmid (HSV UL13 region in pUC) was linearized by cutting with Xba I, denatured for 15 min at 95° C. and diluted immediately into Reacti-Bind DNA Coating Solution (Pierce, 17250, diluted 1:1 with TE buffer, pH 8) at 1 ng/μL 75 μL/well were added to Corning (#3922 or 9690) white 96-well plates and incubated at room temperature for at least 4 hrs before washing twice with 300 μL/well 0.2×SSC/0.05% Tween-20 (SSC/T buffer). The plates were then incubated overnight at room temperature with 150 μL/well 0.2 N NaOH, 1% IGEPAL and 10 μg/mL herring sperm DNA. • (d) Hybridization.
Twenty-seven (27) μL of cell lysate was combined with 45 μL of hybridization solution (final concentration: 3M GuSCN, 50 mM EDTA, 100 μg/ml salmon sperm DNA, 5× Denhardt's solution, 0.25×APE, and 5 ng of the digoxigenin-labeled detection probe). APE is 1.5 M NH4-acetate, 0.15 M ammonium phosphate, and 5 mM EDTA adjusted to pH 6.0. Mineral oil (50 μL) was added to prevent evaporation. The hybridization plates were incubated at 95° C. for 10 minutes to denature the DNA, then incubated at 42° C. overnight. The wells were washed 6× with 300 μL/well SSC/T buffer then incubated with 75 μL/well anti-digoxigenin-HRP-conjugated antibody (Boehringer Mannheim 1207733, 1:5000 in TE) for 30 min at room temperature. The wells were washed 6× with 300 μL/well with PBS/0.05% Tween-20 before 75 μL/well SuperSignal LBA substrate (Pierce) was added. The plates were incubated at room temperature for 30 minutes and chemiluminescence was measured in a Wallac Victor reader. • e) Results.
The following results were obtained for HSV-1.

Row | IC50 | Structure (SMILES)
1 | 0.8 µM | Cc1cc(-c2c(-c3ccc(F)cc3)nn3c(NC4CCCC4)cccc23)nc(NC2CCCC2)n1 [Example 8, N-Cyclopentyl-3-[2-(cyclopentylamino)-6-methyl-4-pyrimidinyl]-2-(4-fluorophenyl)pyrazolo[1,5-α]pyridin-7-amine]

same assay, conditions: Human alphaherpesvirus 1, Vero 76, HSV-1, Vero 76 cells, MOI=0.001, 40–48 hours incubation

Row | Structure (SMILES) | IC50
2 | Fc1ccc(-c2nn3c(NC4CCCC4)cccc3c2-c2ccnc(NC3CCCC3)n2)cc1 [Example 1, N-cyclopentyl-3-[2-(cyclopentylamino)-4-pyrimidinyl]-2-(4-fluorophenyl)pyrazolo[1,5-α]pyridin-7-amine] | 0.3 µM
3 | CCCCNc1nccc(-c2c(-c3ccc(Br)cc3)nn3c(NCCCC)cccc23)n1 [Example 2, 2-(4-Bromophenyl)-N-butyl-3-[2-(butylamino)-4-pyrimidinyl]pyrazolo[1,5-α]pyridin-7-amine] | 0.7 µM
4 | CCCCNc1nccc(-c2c(-c3ccc(F)cc3)nn3c(NCCCC)cccc23)n1 [Example 3, N-Butyl-3-[2-(butylamino)-4-pyrimidinyl]-2-(4-fluorophenyl)pyrazolo-[1,5-α]pyridin-7-amine] | 0.5 µM
5 | CCCCNc1cccc2c(-c3ccnc(NC4CC4)n3)c(-c3ccc(F)cc3)nn12 [Example 4, N-Butyl-3-[2-(cyclopropylamino)-4-pyrimidinyl]-2-(4-fluorophenyl)-pyrazolo[1,5-α]pyridin-7-amine] | 0.6 µM
6 | CCCCNc1cccc2c(-c3ccnc(N4CCCC4)n3)c(-c3ccc(F)cc3)nn12 [Example 5, N-Butyl-2-(4-fluorophenyl)-3-[2-(1-pyrrolidinyl)-4-pyrimidinyl]pyrazolo[1,5-α]pyridin-7-amine] | 5 µM
7 | CCCCNc1cccc2c(-c3ccnc(NC4CCCC4)n3)c(-c3ccc(F)cc3)nn12 [Example 6, N-Butyl-3-[2-(cyclopentylamino)-4-pyrimidinyl]-2-(4-fluorophenyl)pyrazolo[1,5-α]pyridin-7-amine] | 0.2 µM
8 | Cc1cc(-c2c(-c3ccc(F)cc3)nn3c(Cl)cccc23)nc(NC2CCCC2)n1 [Example 7, 4-[7-Chloro-2-(4-fluorophenyl)pyrazolo[1,5-α]pyridin-3-yl]-N-cyclopentyl-6-methyl-2-pyrimidinamine] | 3.9 µM
9 | CCCCNc1cccc2c(-c3ccnc(N4CCCC4)n3)c(-c3ccc(Br)cc3)nn12 [Example 9, 2-(4-Bromophenyl)-N-butyl-3-[2-(1-pyrrolidinyl)-4-pyrimidinyl]pyrazolo[1,5-α]pyridin-7-amine] | 8 µM
10 | CCCCNc1cccc2c(-c3ccnc(NC4CCCC4)n3)c(-c3ccc(Br)cc3)nn12 [Example 10, 2-(4-Bromophenyl)-N-butyl-3-[2-(cyclopentylamino)-4-pyrimidinyl]pyrazolo[1,5-α]pyridin-7-amine] | 5 µM
11 | CN(C)c1nccc(-c2c(-c3ccc(F)cc3)nn3c(NC4CCCC4)cccc23)n1 [Example 11, N-Cyclopentyl-3-[2-(dimethylamino)-4-pyrimidinyl]-2-(4-fluorophenyl)pyrazolo[1,5-α]pyridin-7-amine] | 1 µM
12 | Nc1nccc(-c2c(-c3ccc(F)cc3)nn3c(NC4CCCC4)cccc23)n1 [Example 12, 3-(2-Amino-4-pyrimidinyl)-N-cyclopentyl-2-(4-fluorophenyl)pyrazolo[1,5-α]pyridin-7-amine] | 0.5 µM
13 | Fc1ccc(-c2nn3c(NC4CCCC4)cccc3c2-c2ccnc(NCCCN3CCOCC3)n2)cc1 [Example 13, N-Cyclopentyl-2-(4-fluorophenyl)-3-(2-{[3-(4-morpholinyl)propyl]-amino}-4-pyrimidinyl)pyrazolo[1,5-α]pyridin-7-amine] | 6 µM

More lines, now with the values ahead:

Row | IC50 | Structure (SMILES)
14 | 5 µM | Cc1cc(-c2c(-c3ccc(F)cc3)nn3c(NN)cccc23)nc(NC2CCCC2)n1 [Example 14, N-Cyclopentyl-4-[2-(4-fluorophenyl)-7-hydrazinopyrazolo[1,5-α]pyridin-3-yl]-6-methyl-2-pyrimidinamine]
15 | 5 µM | Cc1cc(-c2c(-c3ccc(F)cc3)nn3c(N4CCN(C)CC4)cccc23)nc(NC2CCCC2)n1 [Example 15, N-Cyclopentyl-4-[2-(4-fluorophenyl)-7-(4-methyl-1-piperazinyl)pyrazolo[1,5-α]pyridin-3-yl]-6-methyl-2-pyrimidinamine]
16 | 40 µM | Fc1ccc(-c2nn3c(NC4CCCC4)cccc3c2-c2cc(COC3CCCCO3)nc(NC3CCCC3)n2)cc1 (stereo not drawn) [Example 16, N-Cyclopentyl-3-{2-(cyclopentylamino)-6-[(tetrahydro-2H-pyran-2-yloxy)methyl]-4-pyrimidinyl}-2-(4-fluorophenyl)pyrazolo[1,5-α]pyridin-7-amine]
17 | 3 µM | OCc1cc(-c2c(-c3ccc(F)cc3)nn3c(Cl)cccc23)nc(NC2CCCC2)n1 [Example 17, [6-[7-Chloro-2-(4-fluorophenyl)pyrazolo[1,5-α]pyridin-3-yl]-2-(cyclopentylamino)-4-pyrimidinyl]methanol]
18 | 20 µM | CN(CC(=O)O)c1nccc(-c2c(-c3ccc(F)cc3)nn3c(NC4CCCC4)cccc23)n1 [Example 18, [{4-[7-(Cyclopentylamino)-2-(4-fluorophenyl)pyrazolo[1,5-α]pyridin-3-yl]-2-pyrimidinyl}(methyl)amino]acetic acid]
19 | 2.5 µM | CN1CCN(c2cccc3c(-c4cc(-c5ccccc5)nc(NC5CCCC5)n4)c(-c4ccc(F)cc4)nn23)CC1 [Example 19, N-Cyclopentyl-4-[2-(4-fluorophenyl)-7-(4-methyl-1-piperazinyl)pyrazolo[1,5-α]pyridin-3-yl]-6-phenyl-2-pyrimidinamine hydrochloride]
20 | 3 µM | NCCNc1cccc2c(-c3cc(-c4ccccc4)nc(NC4CCCC4)n3)c(-c3ccc(F)cc3)nn12 [Example 20, N′-[3-[2-(Cyclopentylamino)-6-phenyl-4-pyrimidinyl]-2-(4-fluorophenyl)pyrazolo[1,5-α]pyridin-7-yl]-1,2-ethanediamine]
21 | 1 µM | Nc1cccc2c(-c3ccnc(NC4CCCC4)n3)c(-c3ccc(F)cc3)nn12 [Example 21, 3-[2-(Cyclopentylamino)-4-pyrimidinyl]-2-(4-fluorophenyl)pyrazolo[1,5-α]pyridin-7-amine]
22 | 5 µM | OCc1cc(-c2c(-c3ccc(F)cc3)nn3c(NC4CCCC4)cccc23)nc(NC2CCCC2)n1 [Example 22, {2-(Cyclopentylamino)-6-[7-(cyclopentylamino)-2-(4-fluorophenyl)pyrazolo[1,5-α]pyridin-3-yl]-4-pyrimidinyl}methanol]
23 | 1 µM | COc1ccc(Nc2cccc3c(-c4ccnc(NC5CCCC5)n4)c(-c4ccc(F)cc4)nn23)cc1 [Example 23, 3-[2-(Cyclopentylamino)-4-pyrimidinyl]-2-(4-fluorophenyl)-N-(4-methoxyphenyl)pyrazo[1,5-α]pyridin-7-amine]
24 | 10 µM | COC(=O)CNc1cccc2c(-c3cc(C)nc(NC4CCCC4)n3)c(-c3ccc(F)cc3)nn12 [Example 24, Methyl {[3-[2-(cyclopentylamino)-6-methyl-4-pyrimidinyl]-2-(4-fluorophenyl)pyrazolo[1,5-α]pyridin-7-yl]amino}acetate]
25 | 15 µM | Cc1cc(-c2c(-c3ccc(F)cc3)nn3c(NCC(=O)O)cccc23)nc(NC2CCCC2)n1 [Example 25, {[3-[2-(Cyclopentylamino)-6-methyl-4-pyrimidinyl]-2-(4-fluorophenyl)pyrazolo[1,5-α]pyridin-7-yl]amino}acetic acid]
26 | 1.5 µM | Fc1ccc(-c2nn3c(Cl)cccc3c2-c2ccnc(NC3CCCC3)n2)cc1 [Example 26, 4-[7-Chloro-2-(4-fluorophenyl)pyrazolo[1,5-α]pyridin-3-yl]-N-cyclopentyl-2-pyrimidinamine]
